Assay in all cases: ≥ marks a high value that may be exact or a test limit, other limits are often not marked, values filed in µg/mL are converted to µM
In experiment [1] the test system is Xanthomonas campestris pv. Vesicatoria 2133-2.
For experiment [2], the system named is Erwinia amylovora PMV 6076.
Experiment [3] relates to Pseudomonas syringae pv. syringae EPS 94.
Experiment [4] deals with Enterococcus faecalis ATCC 29212.
Experiment [5] has as its system Staphylococcus aureus ATCC 12598.
Experiment [6] relates to Acinetobacter baumannii ATCC BAA-1605.
Experiment [7] deals with Acinetobacter baumannii ATCC 19606.
For experiment [8], the system named is Klebsiella pneumoniae ATCC 700603.
In experiment [9] the test system is Staphylococcus aureus ATCC 33591.
For experiment [10], the system named is Enterococcus faecium ATCC 700221.
For experiment [11], the system named is Pseudomonas aeruginosa ATCC 9027.
Experiment [12] concerns Staphylococcus aureus ATCC 9144.
Experiment [13] relates to Staphylococcus epidermidis ATCC 12228.
Experiment [14] has as its system Klebsiella pneumoniae ATCC 13883.
The test system of experiment [15] is Klebsiella aerogenes ATCC 13048.
The test system of experiment [16] is Staphylococcus aureus ATCC 6538.
The subject of experiment [17] is Bacillus anthracis UM23-CL2.
Experiment [18] has as its system Burkholderia cepacia J2540.
In experiment [19] the test system is Staphylococcus aureus 22401.
Experiment [20] deals with Escherichia coli 44102.
Experiment [21] deals with Edwardsiella tarda TX1.
The test system of experiment [22] is Vibrio anguillarum C312.
The test system of experiment [23] is Micrococcus luteus.
Experiment [24] concerns Staphylococcus aureus.
For experiment [25], the system named is Pseudomonas aeruginosa ATCC 27853.
In experiment [26] the test system is Pseudomonas aeruginosa ATCC 21630.
Experiment [27] concerns Escherichia coli ATCC 25922.
Experiment [28] has as its system Staphylococcus aureus ATCC 29213.
For experiment [29], the system named is Pseudomonas aeruginosa ATCC 10419.
Experiment [30] relates to Pseudomonas aeruginosa LCCE.
Experiment [31] relates to Pseudomonas aeruginosa LCCI.
For experiment [32], the system named is Pseudomonas aeruginosa LC.
In experiment [33] the test system is Salmonella enterica subsp. enterica serovar Typhimurium C77-31.
Experiment [34] concerns Pseudomonas aeruginosa LCGE.
Experiment [35] relates to Pseudomonas aeruginosa ATCC 21625.
Experiment [36] relates to Pseudomonas aeruginosa PAO1.
The test system of experiment [37] is Staphylococcus aureus ATCC 43300.
The subject of experiment [38] is Staphylococcus aureus LAC.

Usually MIC stands for the lowest concentration found to suppress growth. Low values mean inhibition by little substance, high ones a need for much substance.

In brackets after ≈: the same amount, converted by molar mass. Several values for one entry are separate records, joined by “and”; a condition that tells them apart may be missing. Equal entries are not always repeated.

As to `CC[C@H](C)[C@H](NC(=O)[C@H](CCCCN)NC(=O)[C@H](CCCCN)NC(=O)[C@H](Cc1ccccc1)NC(=O)[C@H](CC(C)C)NC(=O)[C@H](CCCCN)NC(=O)[C@@H](N)CCCCN)C(=O)N[C@@H](CC(C)C)C(=O)N[C@@H](CCCCN)C(=O)N[C@@H](Cc1ccc(O)cc1)C(=O)N[C@@H](CC(C)C)C(=O)N[C@@H](C)C(=O)NCC(=O)N1CCC[C@H]1C(=O)N[C@@H](C)C(=O)O` [KKLFKKILKYLAGPA], the MIC stood at 3.54 µM (≈ 6.07 µg/mL) in [1], 14.1 µM (≈ 24.3 µg/mL) in [2] and 14.1 µM (≈ 24.3 µg/mL) in experiment [3].
Turning to `CC[C@H](C)[C@H](NC(=O)[C@H](CCCN=C(N)N)NC(=O)[C@H](CCC(N)=O)NC(=O)[C@@H](NC(=O)[C@@H](NC(=O)[C@H](CCCN=C(N)N)NC(=O)[C@H](CCCCN)NC(C)=O)[C@@H](C)CC)C(C)C)C(=O)N[C@@H](CCCCN)C(=O)N[C@@H](CC(=O)O)C(=O)N[C@@H](Cc1ccccc1)C(=O)N[C@@H](CC(C)C)C(=O)N[C@@H](CCCN=C(N)N)C(N)=O` [KRIVQRIKDFLR], the MIC was at least 81.4 µM in [4]; at least 163 µM in experiment [5]; at least 163 µM in experiment [6]; at least 163 µM in experiment [7]; 163 µM (≈ 263 µg/mL) in experiment [8]; at least 163 µM in [9]. For the same compound, the MIC is 10.2 µM (≈ 16.4 µg/mL) in experiment [10]; 40.7 µM (≈ 65.7 µg/mL) in experiment [11]; at least 163 µM in experiment [12]; at least 163 µM in experiment [13]; at least 163 µM in experiment [14]; at least 163 µM in experiment [15]. The compound also returned an MIC in experiment [16] of 163 µM (≈ 263 µg/mL).
Regarding `CC[C@H](C)[C@H](NC(=O)[C@H](CCCCN)NC(=O)[C@H](CCCCN)NC(=O)[C@H](Cc1ccccc1)NC(=O)[C@H](CC(C)C)NC(=O)[C@H](CCCCN)NC(=O)[C@H](Cc1c[nH]c2ccccc12)NC(=O)[C@@H](N)CCCCN)C(=O)N[C@@H](C)C(=O)N[C@@H](CCCCN)C(=O)N[C@@H](CCCCN)C(=O)N[C@@H](Cc1ccccc1)C(=O)N[C@@H](C)C(=O)N[C@@H](CCCCN)C(=O)N[C@@H](C)C(=O)N[C@@H](Cc1ccccc1)C(=O)N[C@H](C(=O)N[C@@H](C)C(=O)N[C@@H](CCC(=O)O)C(=O)N[C@H](C(=O)N[C@@H](CCSC)C(=O)O)[C@@H](C)CC)C(C)C` [KWKLFKKIAKKFAKAFVAEIM], the MIC was 24.7 µM and ≥ 49.5 µM in experiment [17]; 12.4 µM (≈ 31.3 µg/mL) in experiment [18].
As to `CC[C@H](C)[C@H](NC(=O)[C@H](CCC(=O)O)NC(=O)[C@H](C)NC(=O)[C@H](Cc1ccccc1)NC(=O)[C@@H](N)CC(N)=O)C(=O)N[C@@H](Cc1ccccc1)C(=O)N[C@@H](C)C(=O)N[C@@H](C)C(=O)N[C@H](C(=O)N[C@@H](CC(N)=O)C(=O)N[C@@H](CCCCN)C(=O)N[C@@H](CC(C)C)C(=O)N[C@H](C(=O)N[C@@H](CCCCN)C(=O)N[C@@H](CCC(N)=O)C(=O)NCC(=O)N[C@H](C(=O)N[C@H](C(=O)N[C@@H](CCCCN)C(=O)NCC(=O)O)C(C)C)C(C)C)[C@@H](C)CC)C(C)C` [NFAEIFAAVNKLIKQGVVKG], the MIC is at least 50 µM in [19] and 25 µM (≈ 53.7 µg/mL) in experiment [20].
For the compound `CC[C@H](C)[C@H](NC(=O)[C@H](Cc1cnc[nH]1)NC(=O)[C@H](CO)NC(=O)[C@@H](N)CCC(N)=O)C(=O)N[C@@H](CO)C(=O)N[C@@H](CC(C)C)C(=O)N[C@H]1CSSC[C@@H](C(=O)N[C@@H](CCCCN)C(=O)N[C@@H](Cc2ccccc2)C(=O)O)NC(=O)[C@@H]2CSSC[C@H](NC(=O)[C@H](Cc3c[nH]c4ccccc34)NC(=O)[C@H](CCCN=C(N)N)NC1=O)C(=O)N[C@H]1CSSC[C@H](NC(=O)CNC(=O)[C@H](CCCCN)NC(=O)[C@H](CC(N)=O)NC(=O)[C@H](C)NC(=O)[C@H](CCCCN)NC(=O)[C@@H]3CSSC[C@H](NC(=O)[C@H](CC(N)=O)NC1=O)C(=O)N3)C(=O)NCC(=O)N[C@@H](Cc1ccccc1)C(=O)N2` [QSHISLCRWCCNCCKANKGCGFCCKF], the MIC was 2.83 µM (≈ 8.3 µg/mL) in experiment [21], 5.66 µM (≈ 16.6 µg/mL) in [22], 1.41 µM (≈ 4.15 µg/mL) in experiment [23] and 2.83 µM (≈ 8.3 µg/mL) in [24].
`CC[C@H](C)[C@H](NC(=O)[C@H](CCCCN)NC(=O)[C@H](CCCCN)NC(=O)[C@H](CC(C)C)NC(=O)[C@H](CCCN=C(N)N)NC(=O)[C@H](CCCCN)NC(=O)[C@H](CCCN=C(N)N)NC(=O)[C@@H](NC(=O)[C@H](CCCCN)NC(=O)[C@H](CCCCN)NC(=O)[C@H](CCCN=C(N)N)NC(=O)[C@H](CC(C)C)NC(=O)[C@H](CCCN=C(N)N)NC(=O)[C@H](CCCN=C(N)N)NC(=O)[C@H](Cc1ccccc1)NC(=O)[C@@H](N)CCCN=C(N)N)[C@@H](C)CC)C(N)=O` [RFRRLRKKIRKRLKKI]: the MIC was 256 µM (≈ 562 µg/mL) in experiment [25]; at least 256 µM in [26]; 128 µM (≈ 281 µg/mL) in experiment [27]; 256 µM (≈ 562 µg/mL) in [28]; at least 256 µM in [29]; at least 256 µM in experiment [30]. The MIC in [31] is at least 256 µM; in [13] it was 32 µM (≈ 70.2 µg/mL); in experiment [32] it was at least 64 µM; in experiment [33], at least 256 µM; in [34] it was at least 256 µM; in [35], at least 256 µM.
On to `NC(N)=NCCC[C@H](NC(=O)[C@H](CCCN=C(N)N)NC(=O)[C@H](CCCN=C(N)N)NC(=O)[C@@H](N)CCCN=C(N)N)C(=O)N[C@@H](Cc1c[nH]c2ccccc12)C(=O)N[C@@H](Cc1c[nH]c2ccccc12)C(=O)N[C@@H](Cc1c[nH]c2ccccc12)C(=O)N[C@@H](Cc1c[nH]c2ccccc12)C(=O)O` [RRRRWWWW], for which the MIC in [27] amounted to 46.1 µM (≈ 64 µg/mL); in [36], 15.6 µM (≈ 21.7 µg/mL); in [37], 31.3 µM (≈ 43.4 µg/mL); in experiment [38], 23.1 µM (≈ 32 µg/mL).

Source of the values: DBAASP.
